From article PMC8037814, “Polymorphic Characterization, Pharmacokinetics, and Anti-Inflammatory Activity of Ginsenoside Compound K Polymorphs” (Molecules, 2021)
Several values for one entry are separate records, joined by “and”; a condition that tells them apart may be missing. Equal values may be shown once. Read-outs that look alike come from different tables or passages of the source.

Legend:
[1] = test system: carrageenan-induced acute paw inflammation; assay: Paw swelling test induced by carrageenan in rats; type: in vivo, Sprague-Dawley rats; parameters: paw volume: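 right hind paw volume measured with a plethysmometer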; conditions: for paw volume / paw edema: mean±SD of 6 rats; for edema inhibition: versus model group
Method: Rats were divided into 11 groups of six animals each (sex in half): the normal group, the model group, indomethacin group (1 mg/kg), and form I, II, III, IV groups (each form set 10 mg/kg and 20 mg/kg groups, respectively). Indomethacin and CK were ground and suspended in 0.5% CMC-Na solution. […] The same volume of saline was injected into the normal group. […] Paw edema and inhibitory rate were calculated as the following formula, and the differences among groups were compared with the t-test. Paw edema (%) = (Vn − V0)/V0 × 100%. Vn: paw volume at different time intervals after carrageenan injection. V0: paw volume before carrageenan injection. Inhibitory rate (%) = (Em − Ee)/Em × 100%. Em: paw edema of the model group. Ee: paw edema of the experimental group.

[2] = Pharmacokinetics after oral administration of CK polymorphs in rats (20 mg/kg); type: in vivo, Sprague-Dawley rats; conditions: for Fabs (absolute bioavailability): p.o. 20 mg/kg vs i.v. 10 mg/kg, dose-adjusted AUC ratio; for Tmax / t1/2z / AUC(0–t) / AUC(0–∞) / CLz/F / Cmax / Vz/F: 20 mg/kg
[3] = DSC thermal analysis of CK polymorphs; type: physicochemical; conditions: 20 K/min from 20 to 400 °C, dry nitrogen flow
Method: DSC measurements were performed on a DSC204 Phoenix calorimeter (NETZSCH, Selb, Germany) with a heating rate of 20 K/min from 20 to 400 °C. The dry nitrogen flow was about 50 mL/min. Data were analyzed using NETZSCH analysis software.

[4] = Pharmacokinetics after oral administration of CK polymorphs in rats (20 mg/kg); type: in vivo, Sprague-Dawley rats; conditions: p.o. 20 mg/kg, individual rats 1-3
Method: All samples were analyzed with a triple quadrupole LC-MS/MS (API 4000 LC-MS/MS, AB Sciex, Framingham, MA, USA) coupled with an Agilent 1200 HPLC system (Agilent Technologies, Palo Alto, CA, USA). The MS was equipped with an electrospray system (ESI). The N2 gas temperature and ion-spray voltage were set to 550 °C and 4.5 kV, respectively. CK was measured in multiple reaction monitoring (MRM) mode using a negative electrospray ionization source at m/z 667.4 → 621.2 for CK (CID 25.6 v) and m/z 271.2 → 228.8 for internal standard (IS, (E)-5-(4-fluorostyryl)-2-isopropylbenzene-1,3-diol, Welichem Biotech Inc., Wayburne Drive Burnaby, BC, Canada) (CID 28.3 v) with a dwell time of 0.1 s.
Rats were divided randomly into 5 groups of six animals each (sex in half) and given 7 days to acclimatize to the facility before the experiments began. The four forms of CK were suspended in 0.5% sodium carboxymethyl cellulose (CMC-Na) solution and orally administered to rats at a dose of 20 mg/kg. A CK solution in a mixed solvent of dimethyl sulfoxide (DMSO)/castor oil/physiologic saline (3:5:92, v/v) was intravenously administered to the remaining group via the tail vein at a dose of 10 mg/kg. Blood samples were collected by retro-orbital puncture at the following times: 0.167, 0.333, 0.667, 1, 2, 3, 4, 6, 9, 12, and 24 h for the oral administration, and at 0.0083, 0.05, 0.133, 0.25, 0.5, 1, 2, 4, 6, and 9 h for the intravenous administration. Plasma samples were obtained by centrifuging a heparinized blood tube at 4000 rpm for 5 min and then stored at −70 °C until analysis.
The procedure for drug extraction from plasma samples was as follows: 0.2 mL acetonitrile, 0.2 mL plasma sample, and 10 μL IS (1 µg/mL) were added into a 1.5 mL Eppendorf-type tube. This mixture was vortexed for 1 min and then treated with 0.8 mL of methyl tert-butyl ether (MTBE) to precipitate the plasma proteins. After a mechanical vortex for 1 min and subsequent centrifugation (4000 rpm, 5 min), 0.8 mL of the supernatant was transferred and blow-dried with N2 at 40 °C in a water bath. Finally, the residue was dissolved in 120 μL of mobile phase, and then 10 μL was subjected to HPLC for analysis. […] Intra- and inter-day precision and accuracy never exceeded 15% by analyzing six replicate samples.
The CK pharmacokinetic parameters in rats, including the area under the curve (AUC(0–t) and AUC(0–∞)), mean residence time (MRT(0–t) and MRT(0–∞)), maximum concentration (Cmax), time to maximum concentration (Tmax), half-life (t1/2), apparent distribution volume (V), and total plasma clearance (CL), were derived from plasma concentration-time curves by using non-compartmental analysis (NCA) with DAS 2.0 software (Drug And Statistics, Mathematical Pharmacology Professional Committee of China, Shanghai, China). The absolute bioavailability (Fabs) was calculated from the dose-adjusted ratio of AUCp.o. to AUCi.v.. One-way analysis of variance (ANOVA) by SPSS 11.5 (SPSS Inc., Chicago, IL, USA) was conducted to compare the primary PK parameters.

[5] = 10 mg/kg p.o. qd 3 days, 3h after carrageenan, listed as From IV
[6] = 10 mg/kg p.o. qd 3 days, 4h after carrageenan, listed as From IV
[7] = 10 mg/kg p.o. qd 3 days, 5h after carrageenan, listed as From IV
[8] = 10 mg/kg p.o. qd 3 days, 6h after carrageenan, listed as From IV
[9] = 20 mg/kg p.o. qd 3 days, 3h after carrageenan, listed as From IV
[10] = 20 mg/kg p.o. qd 3 days, 4h after carrageenan, listed as From IV
[11] = 20 mg/kg p.o. qd 3 days, 5h after carrageenan, listed as From IV
[12] = 20 mg/kg p.o. qd 3 days, 6h after carrageenan, listed as From IV
[13] = female rats, p.o. 20 mg/kg, individual rats 1-3
[14] = female rats, p.o. 20 mg/kg, mean ± SD (n = 3)
[15] = male rats, p.o. 20 mg/kg, mean ± SD (n = 3)
[16] = 1 mg/kg p.o. qd 3 days, 3h after carrageenan
[17] = 1 mg/kg p.o. qd 3 days, 4h after carrageenan
[18] = 1 mg/kg p.o. qd 3 days, 5h after carrageenan
[19] = 1 mg/kg p.o. qd 3 days, 6h after carrageenan

## CC(C)=CCCC(C)(OC1OC(CO)C(O)C(O)C1O)C1CCC2(C)C1C(O)CC1C3(C)CCC(O)C(C)(C)C3CCC12C [Form IV, 20-O-β-D-glucopyranosyl-20(S)-protopanaxadiol]
[1]; 10 mg/kg p.o. qd 3 days, 0h (before carrageenan), listed as From IV
  paw volume: 1.60±0.05
[1]; [5]
  paw edema: 63.73±8.98%
  paw volume: 2.62±0.13
[1]; [6]
  paw edema: 60.32±7.19%
  paw volume: 2.57±0.10
[1]; [7]
  paw edema: 40.95±1.48%
  paw volume: 2.26±0.05
  edema inhibition: 18.24%
[1]; [8]
  paw edema: 30.95±10.46%
  paw volume: 2.09±0.10
  edema inhibition: 13.86%
[1]; 20 mg/kg p.o. qd 3 days, 0h (before carrageenan), listed as From IV
  paw volume: 1.62±0.05
[1]; [9]
  paw edema: 63.17±8.40%
  paw volume: 2.64±0.16
[1]; 20 mg/kg p.o. qd 3 days, 4h after carrageenan
  paw edema: 58.6 ± 3.6%
[1]; [10]
  paw edema: 58.65±3.69%
  paw volume: 2.57±0.09
[1]; [11]
  paw edema: 39.21±10.18%
  paw volume: 2.26±0.13
  edema inhibition: 21.72%
[1]; [12]
  paw edema: 31.27±12.96%
  paw volume: 2.13±0.15
  edema inhibition: 12.98%
[1]; any time point post carrageenan injection
  paw edema, difference from the model group: no statistical difference
[2]; female rats
  Fabs (absolute bioavailability): 4.07%
[2]; [13]
  Tmax: 3.00 h
  t1/2z: 3.63 h and 3.00 h and 2.43 h
[2]; [14]
  AUC(0–t): 1312.0 ± 471.95 ng·h/mL
  AUC(0–∞): 1320.17 ± 471.22 ng·h/mL and 1320.2 ± 471.22 ng·h/mL
  CLz/F: 274.5 ± 94.5 mL/min/kg and 275 ± 94.5 mL/min/kg
  Cmax: 218.75 ± 111.66 ng/mL and 218.8 ± 111.7 ng/mL
  Tmax: 2.3 ± 0.58 h
  Vz/F: 73.61 ± 37.67 L/kg and 73.6 ± 37.7 L/kg
  t1/2z: 3.02 ± 0.60 h and 3.0 ± 0.60 h
[2]; female, Sprague-Dawley, rat, plasma, po, female rats, p.o. 20 mg/kg, mean ± SD (n = 3), read-out: Tmax
  Tmax: 2.33 ± 0.58 h
[2]; male rats
  Fabs (absolute bioavailability): 2.59%
[2]; male rats, p.o. 20 mg/kg, individual rats 1-3
  Vz/F: 162.18 L/kg and 159.92 L/kg and 86.19 L/kg
[2]; [15]
  AUC(0–t): 758.62 ± 245.16 ng·h/mL
  AUC(0–∞): 784.11 ± 219.63 ng·h/mL
  CLz/F: 446.5 ± 115 mL/min/kg and 447 ± 115 mL/min/kg
  Cmax: 166.43 ± 87.20 ng/mL and 166.4 ± 87.20 ng/mL
  Vz/F: 136.10 ± 43.24 L/kg and 136 ± 43.2 L/kg
  t1/2z: 3.48 ± 0.47 h and 3.5 ± 0.47 h
[2]; rats, p.o. 20 mg/kg
  decrease in the bioavailability from form I to form IV: 34%
[3]
  DSC onset of the decomposition endotherm (thermodynamical stability): 250.2 °C
[4]; female rats
  AUC(0-t): 1818.83 ng·h/mL and 1232.02 ng·h/mL and 885.16 ng·h/mL
  AUC(0-∞): 897.84 ng·h/mL and 1828.44 ng·h/mL and 1234.21 ng·h/mL
  CLz/F: 371.3 mL/min/kg and 182.3 mL/min/kg and 270.2 mL/min/kg
  Cmax: 122.10 ng/mL and 340.98 ng/mL and 193.16 ng/mL
  Vz/F: 116.76 L/kg and 47.28 L/kg and 56.79 L/kg
[4]; male rats
  AUC(0-t): 540.26 ng·h/mL and 711.78 ng·h/mL and 1023.81 ng·h/mL
  AUC(0-∞): 603.16 ng·h/mL and 720.70 ng·h/mL and 1028.47 ng·h/mL
  CLz/F: 552.7 mL/min/kg and 462.5 mL/min/kg and 324.2 mL/min/kg
  Cmax: 115.38 ng/mL and 116.79 ng/mL and 267.12 ng/mL
  t1/2z: 3.99 h and 3.07 h and 3.39 h

## COc1ccc2c(c1)c(CC(=O)O)c(C)n2C(=O)c1ccc(Cl)cc1 [Indomethacin, indomethacin, reference compound]
[1]; 1 mg/kg p.o. qd 3 days, 0h (before carrageenan)
  paw volume: 1.60±0.13
[1]; [16]
  paw edema: 48.00±18.21%
  paw volume: 2.35±0.15
  edema inhibition: 25.32%
[1]; [17]
  paw edema: 43.75±15.39%
  paw volume: 2.28±0.12
  edema inhibition: 29.85%
[1]; [18]
  paw edema: 30.74±10.87%
  paw volume: 2.08±0.15
  edema inhibition: 40.61%
[1]; [19]
  paw edema: 23.41±9.18%
  paw volume: 1.97±0.12
  edema inhibition: 40.46%
